The test has as its system "epileptic-like" discharges from pyramidal cells. The test is described as follows: penicillin-induced "epileptic" hippocampus section preparation, electrophysiological model in vitro. The settings on record: read-out: concentration at which "epileptic-like" discharges from pyramidal cells are inhibited. The format is cell-based.

The record followed here is patent US5424441A, “N-aralkyl-and N-heteroaralkyl-aminoalkanephosphinic acids” (Ciba-Geigy Corporation, priority 1994, dated 1995).

Consider `NCC(CC(=O)O)c1ccc(Cl)cc1` (stereo not shown) [baclofen], for which the minimal effective concentration was 6 µM.
